Our source for the viability and IC50 values is ChEMBL document CHEMBL5528038, “Discovery of 2,3-Diaminoindole Derivatives as a Novel Class of NOD Antagonists” (J Med Chem, 2024).

Data set [1] can be described thus: in vitro. The note with it: human, HEK-Blue hNOD1 cells.
Data set [2] can be described thus: in vitro. Conditions: human, HEK-Blue hNOD2 cells.
Data set [3] has as its target T1, Nucleotide-binding oligomerization domain-containing protein 1 (Homo sapiens, UniProt Q9Y239).
T1 sequence (Q9Y239 whole entry): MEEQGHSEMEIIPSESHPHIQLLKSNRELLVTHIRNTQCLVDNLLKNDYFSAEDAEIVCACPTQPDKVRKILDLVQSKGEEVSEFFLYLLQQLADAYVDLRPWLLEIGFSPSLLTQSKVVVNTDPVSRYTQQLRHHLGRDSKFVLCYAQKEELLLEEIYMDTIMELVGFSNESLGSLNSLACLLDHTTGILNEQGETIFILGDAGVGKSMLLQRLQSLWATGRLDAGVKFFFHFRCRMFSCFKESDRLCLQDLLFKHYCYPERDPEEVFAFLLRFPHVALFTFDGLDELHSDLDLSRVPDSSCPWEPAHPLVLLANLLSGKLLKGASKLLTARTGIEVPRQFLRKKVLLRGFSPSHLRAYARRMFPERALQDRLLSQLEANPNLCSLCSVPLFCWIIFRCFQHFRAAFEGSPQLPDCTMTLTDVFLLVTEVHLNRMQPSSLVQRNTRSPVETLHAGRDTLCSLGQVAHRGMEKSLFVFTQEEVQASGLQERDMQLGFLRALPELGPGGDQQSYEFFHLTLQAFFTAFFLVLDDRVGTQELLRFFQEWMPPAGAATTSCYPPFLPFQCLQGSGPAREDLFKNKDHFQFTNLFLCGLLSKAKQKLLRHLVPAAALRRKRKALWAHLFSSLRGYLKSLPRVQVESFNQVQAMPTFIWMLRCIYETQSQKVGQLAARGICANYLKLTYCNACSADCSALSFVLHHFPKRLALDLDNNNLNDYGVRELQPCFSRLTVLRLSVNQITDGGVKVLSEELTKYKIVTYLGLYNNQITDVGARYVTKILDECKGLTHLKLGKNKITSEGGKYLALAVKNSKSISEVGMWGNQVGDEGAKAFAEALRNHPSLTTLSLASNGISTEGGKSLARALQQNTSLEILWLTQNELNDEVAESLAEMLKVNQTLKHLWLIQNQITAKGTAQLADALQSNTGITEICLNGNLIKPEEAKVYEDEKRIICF
Description: Antagonist activity at human NOD1 expressed in HEK-Blue cells coexpressing NF-kappaB-inducible SEAP reporter gene assessed as inhibition of C12-iE-DAP-induced NF-kappaB transcriptional activity by measuring decrease in SEAP activity preincubated for 1 hr followed by C12-iE-DAP addition and measured after 18 hrs by spectrophotometric analysis

For data set [4], the target named is Nucleotide-binding oligomerization domain-containing protein 2 (Homo sapiens, UniProt Q9HC29).
Description: Antagonist activity at human NOD2 (unknown origin)

pIC50: −log10 of the molar value.

Chain of Nucleotide-binding oligomerization domain-containing protein 2 (Q9HC29 whole entry, the tested form may be a part): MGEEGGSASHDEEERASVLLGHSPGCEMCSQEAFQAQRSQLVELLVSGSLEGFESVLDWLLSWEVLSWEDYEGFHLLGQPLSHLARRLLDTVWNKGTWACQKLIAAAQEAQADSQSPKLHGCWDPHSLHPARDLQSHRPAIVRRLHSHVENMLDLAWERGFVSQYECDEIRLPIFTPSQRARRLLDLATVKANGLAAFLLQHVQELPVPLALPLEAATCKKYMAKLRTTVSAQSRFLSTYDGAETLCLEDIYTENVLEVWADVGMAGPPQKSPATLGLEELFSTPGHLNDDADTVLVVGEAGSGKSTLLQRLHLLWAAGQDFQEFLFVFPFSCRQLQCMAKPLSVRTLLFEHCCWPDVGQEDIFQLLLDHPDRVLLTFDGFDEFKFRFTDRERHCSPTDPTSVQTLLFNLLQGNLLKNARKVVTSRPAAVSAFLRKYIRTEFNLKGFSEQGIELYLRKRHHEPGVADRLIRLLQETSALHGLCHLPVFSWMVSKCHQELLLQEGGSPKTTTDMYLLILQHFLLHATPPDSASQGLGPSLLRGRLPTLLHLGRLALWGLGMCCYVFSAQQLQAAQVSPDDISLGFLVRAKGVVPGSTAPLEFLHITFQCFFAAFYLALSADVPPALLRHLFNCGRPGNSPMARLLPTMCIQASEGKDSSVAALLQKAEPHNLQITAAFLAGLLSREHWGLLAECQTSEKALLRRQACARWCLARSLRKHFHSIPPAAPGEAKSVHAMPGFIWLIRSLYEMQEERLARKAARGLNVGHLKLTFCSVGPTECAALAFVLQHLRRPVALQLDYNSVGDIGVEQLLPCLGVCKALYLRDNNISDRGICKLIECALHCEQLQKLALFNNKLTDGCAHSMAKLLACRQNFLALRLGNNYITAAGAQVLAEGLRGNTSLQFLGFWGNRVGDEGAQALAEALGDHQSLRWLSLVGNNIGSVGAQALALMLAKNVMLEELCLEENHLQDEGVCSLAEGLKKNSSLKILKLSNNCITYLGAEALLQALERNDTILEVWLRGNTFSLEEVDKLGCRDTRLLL

As a reminder, the viability is the share of living cells, or the viability signal relative to a control. For `CC(C)(C)Nc1c(N2CCOCC2)c2ccccc2n1S(=O)(=O)c1ccc([N+](=O)[O-])cc1`, the viability at 18 h, 25 µM in data set [1] and in data set [2] was ≥ 80% throughout.
`Cc1ccc(S(=O)(=O)n2c(NC3CCCCC3)c(N3CCN(C)CC3)c3cc4ccccc4cc32)cc1`: the viability at 18 h, 25 µM in data set [1] and in data set [2] was ≥ 80% in each case.
`Cc1ccc(S(=O)(=O)n2c(NC(C)(C)C)c(N3CCN(C)CC3)c3cc4ccccc4cc32)cc1`: the viability at 18 h, 25 µM in data set [1] and in data set [2] was ≥ 80% each time.
Regarding `CCN(CC)c1c(NC(C)(C)C)n(S(=O)(=O)c2ccc(C)cc2)c2ccccc12`, the viability at 18 h, 25 µM in data set [1] and in data set [2] was ≥ 80% each time.
As to `COC(=O)CNc1c(N2CCOCC2)c2ccccc2n1S(=O)(=O)c1ccc(C)cc1`, the viability at 18 h, 25 µM in data set [1] and in data set [2] was ≥ 80% throughout.
With `Cc1ccc(S(=O)(=O)n2c(NC(C)(C)C)c(N3CCOCC3)c3cc(Cl)ccc32)cc1`, the viability at 18 h, 25 µM in data set [1] and in data set [2] was ≥ 80% each time.
Usually pIC50 stands for the negative decadic logarithm of the IC50, by convention in mol/L. The low end stands for a high IC50, the high end for a low IC50. As to `Cc1ccc(S(=O)(=O)n2c(NC3CCCCC3)c(N3CCN(C)CC3)c3ccccc32)cc1`, the pIC50 in data set [3] was 4.73. Moreover, the viability at 18 h, 25 µM in data set [1] and in data set [2] was ≥ 80% each time.
Regarding `COc1ccc(S(=O)(=O)n2c(NC(C)(C)C)c(N3CCOCC3)c3ccccc32)cc1`, the viability at 18 h, 25 µM in data set [1] and in data set [2] was ≥ 80% each time.
Consider `CCN(CC)c1c(NC(C)(C)C)n(S(=O)(=O)c2ccc(C)cc2)c2cccc(C)c12`, for which the viability at 18 h, 25 µM in data set [1] and in data set [2] was ≥ 80% throughout.
Regarding `Cc1ccc(S(=O)(=O)n2c(NCc3ccccc3)c(N3CCN(C)CC3)c3ccccc32)cc1`, the viability at 18 h, 25 µM in data set [1] and in data set [2] was ≥ 80% throughout.
On to `Cc1ccc(S(=O)(=O)n2c(NC(C)(C)C)c(N3CCOCC3)c3ccccc32)cc1`, for which the viability at 18 h, 25 µM in data set [1] and in data set [2] was ≥ 80% in each case.
For the compound `Cc1ccc(S(=O)(=O)n2c(NC3CC3)c(N3CCOCC3)c3cc(Cl)ccc32)cc1`, the viability at 18 h, 25 µM in data set [1] and in data set [2] was ≥ 80% each time.
Regarding `Cc1ccc(S(=O)(=O)n2c(NC(C)(C)C)c(N3CCCCC3)c3ccccc32)cc1`, the viability at 18 h, 25 µM in data set [1] and in data set [2] was ≥ 80% each time.
As to `Cc1ccc(S(=O)(=O)n2c(NCc3ccccc3)c(N3CCOCC3)c3ccccc32)cc1`, the viability at 18 h, 25 µM in data set [1] and in data set [2] was ≥ 80% each time.
Take `C#CCN(C)c1c(Nc2ccc3ccccc3c2)n(S(=O)(=O)c2ccc(C)cc2)c2cc(Cl)ccc12`: the viability at 18 h, 25 µM in data set [1] and in data set [2] was ≥ 80% in each case.
In the case of `O=[N+]([O-])c1ccc(S(=O)(=O)n2c(NCc3ccccc3)c(N3CCOCC3)c3ccccc32)cc1`, the viability at 18 h, 25 µM in data set [1] and in data set [2] was ≥ 80% each time.
For the compound `CCCCCn1c(SCCc2ccccc2)nc2[nH]c(=O)[nH]c(=O)c21`, the pIC50 in data set [4] is < 4.70.
Take `Cc1ccc(S(=O)(=O)n2c(NCc3ccccc3)c(N3CCN(C)CC3)c3cc4ccccc4cc32)cc1`: the pIC50 in data set [3] was 4.68. Further, the viability at 18 h, 25 µM in data set [1] and in data set [2] was ≥ 80% each time.
`CCCCCNc1c(N(CC)CC)c2ccccc2n1S(=O)(=O)c1ccc(C)cc1`: the viability at 18 h, 25 µM in data set [1] and in data set [2] was ≥ 80% each time.
Consider `CCCCCNc1c(N2CCOCC2)c2ccccc2n1S(=O)(=O)c1ccc(C)cc1`, for which the viability at 18 h, 25 µM in data set [1] and in data set [2] was ≥ 80% each time.
In turn, `CCCCCNc1c(N2CCOCC2)c2ccccc2n1S(=O)(=O)c1ccc([N+](=O)[O-])cc1` gave a pIC50 in data set [3] of 4.58. The viability at 18 h, 25 µM in data set [1] and in data set [2] was ≥ 80% in each case.
